In patent US12655185B2, “Peptide inhibitors of interleukin-23 and their use to treat inflammatory diseases” (Protagonist Therapeutics, Inc., priority 2016, dated 2026):
Bridge positions count the residues as written; N and C are the ends. Peptide text beside a SMILES is read from it.

Key:
[1] = biological target: IL-6 binding to IL-6R (Homo sapiens, UniProt P05231); assay: Binding of IL-6 to IL-6R; settings: data not shown
[2] = biological target: T1, mouse IL-23 binding to mouse IL-23R (Mus musculus, UniProt P43432+Q9EQ14); assay: Mouse IL23/IL23R huFc ELISA; settings: data not shown
T1 sequence (Q9EQ14 22-196): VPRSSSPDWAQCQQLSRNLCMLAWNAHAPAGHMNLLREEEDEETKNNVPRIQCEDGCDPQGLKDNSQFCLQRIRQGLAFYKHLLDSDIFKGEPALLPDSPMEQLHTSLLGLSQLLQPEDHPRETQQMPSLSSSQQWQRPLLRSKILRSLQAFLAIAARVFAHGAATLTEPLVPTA
T1 sequence (P43432 23-335): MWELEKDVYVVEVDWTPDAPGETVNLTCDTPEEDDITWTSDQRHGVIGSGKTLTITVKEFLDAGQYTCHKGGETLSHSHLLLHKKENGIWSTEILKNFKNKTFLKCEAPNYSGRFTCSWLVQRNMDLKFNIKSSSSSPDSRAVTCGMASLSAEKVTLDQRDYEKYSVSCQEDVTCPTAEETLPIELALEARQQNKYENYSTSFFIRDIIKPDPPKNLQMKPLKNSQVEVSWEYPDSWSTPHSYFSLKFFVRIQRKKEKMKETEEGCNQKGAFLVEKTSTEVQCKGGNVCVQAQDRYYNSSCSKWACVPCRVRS
Protocol: Certain peptides were tested to identify peptides that inhibit the binding of IL-23 to human IL-23R or mouse IL-23R, and inhibit IL-23/IL-23R functional activity, as described below. Each of these peptides comprised a disulfide bond between X5 and X34, except for Peptide 1, which comprises a disulfide bond between X4 and X33.

[3] = biological target: T2, IL-23 binding to human IL-12Rβ1_huFC (Homo sapiens, UniProt P29460+Q9NPF7); assay: Human IL23/IL12Rβ1 huFc ELISA; settings: for blocking of binding of IL-23 to IL-12Rβ1: result in words
T2 sequence (Q9NPF7 20-189): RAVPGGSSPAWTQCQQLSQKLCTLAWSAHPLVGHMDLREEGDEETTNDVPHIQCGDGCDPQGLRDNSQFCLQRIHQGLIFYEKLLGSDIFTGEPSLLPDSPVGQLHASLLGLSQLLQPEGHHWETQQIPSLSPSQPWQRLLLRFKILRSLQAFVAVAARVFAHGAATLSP
T2 sequence (P29460 23-328): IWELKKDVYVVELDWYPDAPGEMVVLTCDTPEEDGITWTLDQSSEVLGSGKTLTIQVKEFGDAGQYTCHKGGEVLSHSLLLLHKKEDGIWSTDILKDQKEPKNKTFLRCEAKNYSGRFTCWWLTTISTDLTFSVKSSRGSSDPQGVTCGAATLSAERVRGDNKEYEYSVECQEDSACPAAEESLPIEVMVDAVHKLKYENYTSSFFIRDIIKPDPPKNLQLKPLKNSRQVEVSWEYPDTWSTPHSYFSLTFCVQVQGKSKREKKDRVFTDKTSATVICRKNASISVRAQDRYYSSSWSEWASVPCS
Protocol: (§1) The ability of Peptide 10 to block binding of IL-23 to IL-12Rβ1 or binding of IL-12 to IL-12Rβ1 was also determined. Human IL-12Rβ1 ELISA assays were performed as follows: an assay plate was coated with 100 ng/well of human IL-12Rβ1_huFC and incubated overnight at 4° C. The wells were washed, blocked, and washed again. Serial dilutions of test peptides and either IL-23 or IL-12 at a fixed concentration corresponding to EC50 values were added to each well, and incubated for 2 hours at room temperature. After the wells were washed, bound IL-23 were detected with goat anti-p40 polyclonal antibodies followed by an HRP conjugated donkey anti-goat IgG, and bound IL-12 were detected with a biotin conjugated anti-p40 monoclonal antibody followed by HRP conjugated streptavidin. Signals were visualized with TMB One Component HRP Membrane Substrate and quenched with 2 M sulfuric acid.

[4] = biological target: T3, IL-23 binding to IL23R_huFC (human IL-23R) (Homo sapiens, UniProt P29460+Q9NPF7); assay: IL23-IL23R Competitive Binding ELISA; settings: inhibition of IL-23/IL-23R binding; IL-23 0.9 nM; class symbols; read-out: IC50 IL23R_huFC
T3 sequence (Q9NPF7 20-189): T2 sequence (Q9NPF7 20-189)
T3 sequence (P29460 23-328): T2 sequence (P29460 23-328)
Protocol: Immulon® 4HBX plate was coated with 200 ng/well of IL23R_huFC and incubated overnight at 4° C. […] Serial dilutions of test peptides and IL-23 at a final concentration of 0.9 nM diluted in PBS were added to each well and incubated for 2 hours at room temperature. After the wells were washed, bound IL-23 was detected by incubation with 50 ng/well of goat anti-p40 polyclonal antibodies (R&D Systems #AF309) diluted in PBS for 1 hour at room temperature. The wells were again washed four times with PBST. […] The plate was finally washed as above. Signals were visualized with TMB One Component HRP Membrane Substrate, quenched with 2 M sulfuric acid and read spectrophotometrically at 450 nm.

[5] = test system: human IL-23-dependent release of IL-17 from mouse splenocytes; assay: Mouse splenocyte assay; type: cell-based; settings: IL-17A release; IL-23 20 ng/mL; 67 hours
Protocol: Frozen mouse splenocytes (Hooke Lab), suspended in RPMI Medium 1640 (Life technologies #22400-089) supplemented with 10% heat inactivated FBS (Life technologies #16140-071), 1×MEM Non-Essential Amino Acid Solution (Life technologies #11140-050), 1 mM sodium pyruvate (Life technologies #11360-070), 100 units of Penicillin-Streptomycin (Life technologies #15140-122, 0.05 mM 2-mercaptoethanol (Life technologies #21985-023) and recombinant human IL-2 (R&D Systems #202-IL-010/CF), were seeded at 4×10E5 cells/well in a 96 well tissue culture plate. Serial dilutions of test peptides and IL-23 at a final concentration of 20 ng/mL were preincubated in a separate assay plate for 60 minutes at 37° C. in a 5% CO2 humidified incubator. Preincubated samples were then added to the culture plate containing splenocytes and incubated for an additional 67 hours at 37° C. in a 5% CO2 humidified incubator. A sandwich ELISA kit for mouse IL17A (Biolegend #436204) was used to measure the amount of IL-17A in each sample supernatants, according to manufacturer's instructions.

[6] = biological target: T4, IL-12 binding to human IL-12Rβ1_huFC (Homo sapiens, UniProt P29459+P29460); assay: Human IL12/IL12Rβ1 huFc ELISA
T4 sequence (P29459 23-219): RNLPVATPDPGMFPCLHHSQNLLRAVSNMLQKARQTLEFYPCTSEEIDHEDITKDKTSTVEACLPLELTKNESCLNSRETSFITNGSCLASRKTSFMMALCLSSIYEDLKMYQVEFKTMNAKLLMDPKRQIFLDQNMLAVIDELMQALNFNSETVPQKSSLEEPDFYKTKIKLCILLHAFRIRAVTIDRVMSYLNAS
T4 sequence (P29460 23-328): T2 sequence (P29460 23-328)
Protocol: as §1

[7] = biological target: IL-13 binding to IL-13Ra1 (Homo sapiens, UniProt P35225); assay: Binding of IL-13 to IL-13Ra1; settings: data not shown

Molecule | blocking of binding of IL-6 to IL-6R [1] | blocking of binding of mouse IL-23 to mouse IL-23R [2] | IC50 ([3]; competition binding, IL-23 at EC50) | blocking of binding of IL-23 to IL-12Rβ1 [3] | IC50 [4] | IC50 [5] | IC50 ([6]; competition binding, IL-12 at EC50, read-out: Human IL12/IL12Rβ1huFc ELISA) | blocking of binding of IL-12 to IL12Rβ1 ([6]; result in words) | blocking of binding of IL-13 to IL-13Ra1 [7] | Mouse splenocyte assay [5]
CC[C@H](C)[C@@H]1NC(=O)[C@H](CCCCN)NC(=O)[C@H](C)NC(=O)[C@H](Cc2c[nH]c3ccccc23)NC(=O)[C@H](CCCNC(=N)N)NC(=O)[C@H](CCC(N)=O)NC(=O)[C@H](CCC(=O)O)NC(=O)[C@H](CCC(N)=O)NC(=O)[C@H](CC(N)=O)NC(=O)[C@H](CC(C)C)NC(=O)[C@H](CC(N)=O)NC(=O)[C@@H]2CCCN2C(=O)[C@H](CC(=O)O)NC(=O)[C@H](C(C)C)NC(=O)CNC(=O)[C@H](C)NC(=O)[C@H](CCC(=O)O)NC(=O)[C@H](CO)NC(=O)[C@H](CCSC)NC(=O)[C@H](CCCNC(=N)N)NC(=O)[C@H](CCCNC(=N)N)NC(=O)[C@H](CC(C)C)NC(=O)[C@@H](NC(=O)[C@H](CCC(N)=O)NC(=O)[C@H](CCSC)NC(=O)[C@H](CC(N)=O)NC(=O)[C@H](Cc2ccccc2)NC(C)=O)CSSC[C@@H](C(N)=O)NC(=O)[C@H](CC(=O)O)NC(=O)[C@H](CC(=O)O)NC(=O)[C@H](CCSC)NC(=O)[C@H]([C@@H](C)CC)NC(=O)[C@H](CO)NC(=O)[C@H](CCCCN)NC1=O [Peptide 10] (Ac-FNMQCLRRMSEAGVDPNLNQEQRWAKIKSIMDDC-NH2; disulfide 5-34) | did not block | blocked | > 100 µM | did not block | 1 to 10 µM | 1.6 µM | > 100 µM | did not block | did not block | –
Ustekinumab: a humanized antibody that binds IL-23 (p40 subunit), approved for the treatment of psoriasis [reference compound] | – | – | – | blocked | – | – | – | – | – | 0.06 µg/mL
